Measured values taken from publication PMC4059138, “Structural Basis for Multiple Sugar Recognition of Jacalin-related Human ZG16p Lectin*^([image sbox.jpg])” (The Journal of Biological Chemistry, 2014).
Read-outs that look alike come from different tables or passages of the source. Each block holds one molecule with its values, some of them ahead of it. No end group written: not given here. *: point of attachment. αMan = OC[C@H]1O[C@H](*)[C@@H](O)[C@@H](O)[C@@H]1O

What was measured:
[1] = molecular target: T1, 15N-labeled human ZG16p(21–167) (Homo sapiens, UniProt O60844); assay: 1H-15N HSQC NMR titration; assay type: binding
T1 construct: gene ZG16; residues 21-167 (signal peptide removed), 15N-labelled, E. coli pCold-PDI vector, tag removed as for the other construct; the purification says 21-159 for the same labelled protein; monomer
T1 sequence (O60844 21-167): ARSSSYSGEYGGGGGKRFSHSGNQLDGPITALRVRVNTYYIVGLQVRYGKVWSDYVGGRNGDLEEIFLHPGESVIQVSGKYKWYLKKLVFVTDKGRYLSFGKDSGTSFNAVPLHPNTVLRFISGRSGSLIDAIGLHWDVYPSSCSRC
From the text: 1H-15N HSQC NMR titration on 15N-labeled human ZG16p(21–167)

human ZG16p(21–159) [2] = molecular target: T2, human ZG16p(21–159) (Homo sapiens, UniProt O60844); assay: X-ray crystallography, soaking, […] Å; conditions: pH 6.5; mannose-binding pocket
T2 construct: gene ZG16; residues 21-159, expressed in E. coli as (His)6-MBP fusion, tag removed by TEV protease; monomer
T2 sequence (O60844 21-159): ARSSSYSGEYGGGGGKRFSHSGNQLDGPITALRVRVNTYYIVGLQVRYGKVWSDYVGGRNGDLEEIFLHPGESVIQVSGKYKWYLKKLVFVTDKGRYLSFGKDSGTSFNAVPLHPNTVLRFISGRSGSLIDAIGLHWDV

human ZG16p(21–159) [3] = molecular target: T2, human ZG16p(21–159); assay: X-ray crystallography, soaking, […] Å; conditions: pH 6.5; mannose-binding pocket; remark: listed apart in the source
[4] = molecular target: T3, Human ZG16p(21–167), 15N-labeled (human, UniProt O60844 21-167, uniformly 15N-labeled); assay: NMR titration; 1H-15N HSQC of 0.1–0.15 mM 15N-labeled ZG16p with increasing amounts of ligand; 298 K; PBS, pH 6.5, 10% D2O; Kd fitted from chemical shift changes (n = 3); conditions: both partners purified
T3 construct: zymogen granule protein 16 (ZG16p), human, residues 21-167; the same paragraph also calls the 15N-labeled protein ZG16p(21–159); also called zymogen granule protein 16; 15N-labeled ZG16p; source: E. coli, pCold-PDI vector, 15N-labeled Spectra 9 medium, purified (Ni-Sepharose, size exclusion chromatography)
T3 sequence (looked up): T1 sequence (O60844 21-167)

[5] = PBS pH 6.5, 10% D2O, 298 K, mannose-binding pocket

Molecule: N[C@@H](CO[C@H]1O[C@H](CO)[C@@H](O)[C@H](O)[C@@H]1O)C(=O)O [Man-O-Ser]
X-ray crystallography, soaking, 2.1 Å (human ZG16p(21–159) [2]): structures of human ZG16p in complex with Man-O-Ser and Man-O-Thr were determined

Molecule: OC[C@H]1O[C@H](O[C@H]2[C@H](O)[C@@H](CO)OC(O)[C@H]2O)[C@@H](O)[C@@H](O)[C@@H]1O (stereo partly shown) [Manα1–3Man]
Kd [1, 5]: 13 ± 7 mM

Molecule: Heparin tetrasaccharide
Kd ([1]; PBS pH 6.5, 10% D2O, 298 K, heparin site on flat surface adjacent to the mannose pocket): 2 ± 1 mM

The next lines start with results.

Kd [1, 5]: 7 ± 4 mM
Molecule: OC[C@H]1O[C@@H](O[C@H]2[C@H](O)[C@@H](CO)OC(O)[C@@H]2O)[C@H](O)[C@@H](O)[C@@H]1O (stereo partly shown) [Glcβ1–3Glc]

Kd [1]: 19 ± 11 mM
Molecule: C[C@@H](O[C@H]1O[C@H](CO)[C@@H](O)[C@H](O)[C@@H]1O)[C@H](N)C(=O)O [Man-O-Thr]
X-ray crystallography, soaking, 2.7 Å (human ZG16p(21–159) [3]): structures of human ZG16p in complex with Man-O-Ser and Man-O-Thr were determined

Kd [4]: 3 mM
B1: Man-α-O-heptapeptide Val-Glu-Pro-(Man-α-O-Thr)-Ala-Val-Ala (peptide)
peptide: VEPT(αMan)AVA
notes: Glycopeptide; also called Man-O-peptide; source: synthetic peptide (solid phase, Fmoc; HPLC and Sephadex G-15)
